Patent US7560477B2, “Compounds active in sphingosine 1-phosphate signaling” (University of Virginia Patent Foundation, priority 2002, dated 2009)

Key:
Assay type in all cases: biochemical
hS1P1 = biological target: T1, hS1P1 (Homo sapiens, UniProt P21453); experiment: [γ-35S]GTP binding, HEK293T cell membranes with S1P1 receptor
T1 construct: expressed in transfected cells; host or cells: HEK293T cells, transient transfection
Procedure: (§1) Human or mouse S1P5 DNA was mixed with an equal amount of DNA encoding a rat Gi2R protein as well as DNAs encoding cow β1 and γ2 proteins and used to transfect monolayers of HEK293T cells using the calcium phosphate precipitate method. After 60 h, cells were harvested, and microsomes were prepared, aliquoted, and stored at −70° C. until use.
(§2) After incubating for 30 min at 30° C., bound radionuclide was separated from free by filtration through Whatman GF/C paper using a Brandel Cell Harvester (Gaithersburg, Md.).
(§3) Assay of cAMP accumulation was performed as described previously (See Im et al., J. Biol. Chem. 275, 14281-14286 (2000), the disclosure of which is incorporated herein). Assays were conducted on populations of 5×10^5 cells stimulated with 1 uM forskolin in the presence of the phosphodiesterase inhibitor […] (IBMX, 1 mM) for 15 min. cAMP was measured by automated radioimmunoassay. The GTPγS studies were performed using zebrafish S1P1 overexpressed rat RH-7777 and human hS1P1, hS1P2, hS1P3 and hS1P5 overexpressed human HEK293 cells.
(§4) An additional series of compounds was tested using the GTPCS binding assay described in Example 2 and in Im et al., J. Biol. Chem. 275, 14281-14286 (2000), the disclosure of which is incorporated herein).

hS1P3 = biological target: T2, hS1P3 (Homo sapiens, UniProt Q99500); experiment: [γ-35S]GTP binding, HEK293T cell membranes with S1P3 receptor
T2 construct: expressed in transfected cells; host or cells: HEK293T cells, transient transfection
Procedure: as §1, §2, §3, §4

[1] = test system: Recombinant S1P Receptors; experiment: [γ-35S]GTP binding at recombinant S1P receptors (statements covering all receptors tested); conditions: at each receptor
Procedure: The same results were obtained regardless of whether the recombinant receptor used exogenous G proteins (HEK293T cells) or endogenous G proteins (RH7777 cells). […] The Sf9 cell and HEK293T cell membranes gave similar results. Furthermore, the activities measured in the broken cell assay predicted the responses seen in whole cell assays.
as §2, §3

T1 sequence (P21453 whole entry): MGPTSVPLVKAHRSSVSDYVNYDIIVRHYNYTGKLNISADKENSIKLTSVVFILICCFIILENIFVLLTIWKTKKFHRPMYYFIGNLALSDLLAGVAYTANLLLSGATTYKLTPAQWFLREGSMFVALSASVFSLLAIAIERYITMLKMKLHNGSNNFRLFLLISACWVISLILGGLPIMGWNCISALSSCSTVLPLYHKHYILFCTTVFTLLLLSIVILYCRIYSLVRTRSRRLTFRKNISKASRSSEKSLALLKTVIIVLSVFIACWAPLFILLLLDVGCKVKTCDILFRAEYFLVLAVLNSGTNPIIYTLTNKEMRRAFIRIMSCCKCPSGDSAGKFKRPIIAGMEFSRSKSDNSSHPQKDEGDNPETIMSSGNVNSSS
T2 sequence (Q99500 whole entry): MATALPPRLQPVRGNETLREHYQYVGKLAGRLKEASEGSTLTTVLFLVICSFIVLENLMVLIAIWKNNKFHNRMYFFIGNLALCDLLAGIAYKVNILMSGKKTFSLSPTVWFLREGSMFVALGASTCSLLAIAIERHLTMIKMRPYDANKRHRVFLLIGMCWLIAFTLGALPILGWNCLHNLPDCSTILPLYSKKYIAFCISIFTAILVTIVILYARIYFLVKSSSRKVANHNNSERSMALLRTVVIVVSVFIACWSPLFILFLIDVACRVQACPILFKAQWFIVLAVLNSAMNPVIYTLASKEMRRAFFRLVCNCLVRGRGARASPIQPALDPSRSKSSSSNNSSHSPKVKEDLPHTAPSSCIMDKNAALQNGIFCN

`CCCCCCCCCCCCCCOC(=O)[C@@H](N)COP(=O)(O)O` [VPC22053] was tested. Which “less potent than enantiomer VPC22135 at S1P1 receptor” value (hS1P1) did it give?
The value was “more than 1 log order”.

What about the “less potent than enantiomer VPC22135 at S1P3 receptor” value (hS1P3) of the same compound?
Its value is “more than 1 log order”.

With `CCCCCCCCCc1cccc(NC(=O)[C@H](N)COP(=O)(O)O)c1` [VPC23079] as the compound, how does the “type of activity at the S1P3 receptor (inverse agonism / agonism)” value (shortened to “type … (inverse agonism / agonism)”) (hS1P3; result in words) read?
The value was “agonism”.

How did the “type … (inverse agonism / agonism)” value (hS1P3; result in words) turn out when `CCCCCCCCc1ccccc1NC(=O)[C@H](N)COP(=O)(O)O` [VPC23089] was run?
The value was “inverse agonists”.

For `CCCCCCCCCCc1cccc(NC(=O)[C@H](N)COP(=O)(O)O)c1` [VPC23069], which “type … (inverse agonism / agonism)” value (hS1P3; result in words) is on record?
Its value is “agonism”.

Which “increase of GTPγS binding” value [1] does the source give for `CCCCCCCCCCCCC/C=C/[C@@H](O)[C@@H](N)COP(=O)(O)O` [Compound S1P, Sphingosine-1-phosphate] here?
Its value is 2-5 fold.

How did the “potency compared with S1P at human S1P1 receptor” value (hS1P1; result in words) turn out when `CCCCCCCCCCCCCCNC(=O)[C@H](N)COP(=O)(O)O` [VPC22135] was run?
Its value is “approached the potency of S1P”.

What about the “potency compared with S1P at human S1P3 receptor” value (hS1P3; result in words) of the same compound?
The value was “approached the potency of S1P”.

Which “type … (inverse agonism / agonism)” value (hS1P3; result in words) does the source give for `CCCCCCc1cccc(NC(=O)[C@H](N)COP(=O)(O)O)c1` [VPC23031] here?
The value was “inverse agonists”.

Which results are given for `CCCCCCCCc1cccc(NC(=O)[C@H](N)COP(=O)(O)O)c1` [VPC23019]?
antagonism at S1P1 (hS1P1; result in words, competition with S1P): antagonism; type of activity at the S1P3 receptor (inverse agonism / agonism) (hS1P3; result in words): inverse agonists
